Source: paper PMC6895180 (Nature Communications, 2019)
“And” between values parts separate entries of the source, which are not always exact repeats. Equal entries are not always repeated. Where two headings read alike, the source gives them in different places.

What was measured:
[1] = Cytotoxicity on MRC-5 fibroblasts (resazurin); format: cell-based, human; settings: human, MRC-5SV2 human embryonic lung fibroblasts, cytotoxicity in human MRC-5 fibroblasts; mean and SEM; read-out: MRC-5 EC50
Outline: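 MRC-5SV2 cells (3 × 10^4 cells mL^−1) in MEM with 5% foetal calf serum exposed to compounds for 3 days at 37 °C, 5% CO2. Viability read by resazurin fluorescence (10 µg mL^−1 final, 4 h; λex 550/λem 590 nm) against untreated and medium controls; EC50 derived.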

[2] = system: T. brucei BSF s427 wildtype cells; experiment: Growth assays of T. brucei (trypanocidal/trypanostatic effect); format: cell-based, Trypanosoma brucei
Outline: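 Cells were seeded at 1×10^5 cells/mL in HMI-9 with 10% FBS and 2 μM 2'-deoxycoformycin, then counted manually at intervals up to 48 h. For wash-out, cultures at 10^5 cells/mL (37 °C/5% CO2) were split at 8 h and 48 h and resuspended with or without compound, with counts every 24 h (detection limit 10^4 cells/mL).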

[3] = molecular target: Lister 427WT T. b. brucei; experiment: Adenosine deaminase susceptibility (drug sensitivity with/without 2 µM deoxycoformycin); format: cell-based, Trypanosoma brucei brucei; settings: for EC50: Trypanosoma brucei, Lister 427WT, mean ± SEM, n=3

With `Nc1ncnc2c1c(Br)cn2[C@@H]1O[C@H](CO)C[C@H]1O` [Compound 10, 3’-deoxy-7-Br-tubercidin] the EC50 at 3 day [1] was 15000 ± 3000 nM, the “AVG of cells/mL” value ([2]; 2xEC50, 2 h, experiment 1) was 128750 cells/mL and the Cells/mL ([2]; 2xEC50, 2 h, experiment 1) was 137500 Cells/mL and 120000 Cells/mL. The Counts ([2]; 2xEC50, 2 h, experiment 1) was 55 and 48, the “AVG of cells/mL” value ([2]; 2xEC50, 2 h, experiment 2) was 145000 cells/mL and the Cells/mL ([2]; 2xEC50, 2 h, experiment 2) was 147500 Cells/mL and 142500 Cells/mL. For the same compound, the Counts ([2]; 2xEC50, 2 h, experiment 2) was 59 and 57, the “AVG of cells/mL” value ([2]; 2xEC50, 4 h, experiment 1) was 143750 cells/mL and the Cells/mL ([2]; 2xEC50, 4 h, experiment 1) was 162500 Cells/mL and 125000 Cells/mL. The Counts ([2]; 2xEC50, 4 h, experiment 1) was 50 and 65, the “AVG of cells/mL” value ([2]; 2xEC50, 4 h, experiment 2) was 148750 cells/mL and the Cells/mL ([2]; 2xEC50, 4 h, experiment 2) was 160000 Cells/mL and 137500 Cells/mL. The Counts ([2]; 2xEC50, 4 h, experiment 2) was 55 and 64, the “AVG of cells/mL” value ([2]; 2xEC50, 6 h, experiment 1) was 172500 cells/mL and the Cells/mL ([2]; 2xEC50, 6 h, experiment 1) was 177500 Cells/mL and 167500 Cells/mL. The Counts ([2]; 2xEC50, 6 h, experiment 1) was 71 and 67, the “AVG of cells/mL” value ([2]; 2xEC50, 6 h, experiment 2) was 203750 cells/mL and the Cells/mL ([2]; 2xEC50, 6 h, experiment 2) was 192500 Cells/mL and 215000 Cells/mL. The Counts ([2]; 2xEC50, 6 h, experiment 2) was 77 and 86, the “AVG of cells/mL” value ([2]; 2xEC50, 8 h, experiment 1) was 183750 cells/mL and the Cells/mL ([2]; 2xEC50, 8 h, experiment 1) was 177500 Cells/mL and 190000 Cells/mL. For the same compound, the Counts ([2]; 2xEC50, 8 h, experiment 1) was 71 and 76, the “AVG of cells/mL” value ([2]; 2xEC50, 8 h, experiment 2) was 206250 cells/mL and the Cells/mL ([2]; 2xEC50, 8 h, experiment 2) was 215000 Cells/mL and 197500 Cells/mL. The Counts ([2]; 2xEC50, 8 h, experiment 2) was 86 and 79, the “AVG of cells/mL” value ([2]; 2xEC50, 12 h, experiment 1) was 163750 cells/mL and the Cells/mL ([2]; 2xEC50, 12 h, experiment 1) was 195000 Cells/mL and 132500 Cells/mL. For the same compound, the Counts ([2]; 2xEC50, 12 h, experiment 1) was 78 and 53, the “AVG of cells/mL” value ([2]; 2xEC50, 12 h, experiment 2) was 143750 cells/mL and the Cells/mL ([2]; 2xEC50, 12 h, experiment 2) was 160000 Cells/mL and 127500 Cells/mL. For the same compound, the Counts ([2]; 2xEC50, 12 h, experiment 2) was 64 and 51, the “AVG of cells/mL” value ([2]; 2xEC50, 24 h, experiment 1) was 103750 cells/mL and the Cells/mL ([2]; 2xEC50, 24 h, experiment 1) was 125000 Cells/mL and 82500 Cells/mL. For the same compound, the Counts ([2]; 2xEC50, 24 h, experiment 1) was 50 and 33, the “AVG of cells/mL” value ([2]; 2xEC50, 24 h, experiment 2) was 15000 cells/mL and the Cells/mL ([2]; 2xEC50, 24 h, experiment 2) was 15000 Cells/mL. The Counts ([2]; 2xEC50, 24 h, experiment 2) was 6, the “AVG of cells/mL” value ([2]; 2xEC50, 36 h, experiment 1) was 103750 cells/mL and the Cells/mL ([2]; 2xEC50, 36 h, experiment 1) was 107500 Cells/mL and 100000 Cells/mL. For the same compound, the Counts ([2]; 2xEC50, 36 h, experiment 1) was 43 and 40, the “AVG of cells/mL” value ([2]; 2xEC50, 36 h, experiment 2) was 7500 cells/mL and the Cells/mL ([2]; 2xEC50, 48 h, experiment 1) was 0 Cells/mL. For the same compound, the Counts ([2]; 2xEC50, 48 h, experiment 1) was 0, the “AVG of cells/mL” value ([2]; 2xEC50, 48 h, experiment 2) was 0 cells/mL and the Cells/mL ([2]; 2xEC50, 48 h, experiment 2) was 0 Cells/mL. For the same compound, the Counts ([2]; 2xEC50, 48 h, experiment 2) was 0, the “effect on T. brucei bloodstream forms in culture (cidal/static)” value ([2]; 2× and 5× EC50) was “trypanocidal” and the “AVG of cells/mL” value ([2]; 5xEC50, 2 h, experiment 1) was 138750 cells/mL. The Cells/mL ([2]; 5xEC50, 2 h, experiment 1) was 132500 Cells/mL and 145000 Cells/mL, the Counts ([2]; 5xEC50, 2 h, experiment 1) was 53 and 58 and the “AVG of cells/mL” value ([2]; 5xEC50, 2 h, experiment 2) was 140000 cells/mL. The Cells/mL ([2]; 5xEC50, 2 h, experiment 2) was 137500 Cells/mL and 142500 Cells/mL, the Counts ([2]; 5xEC50, 2 h, experiment 2) was 55 and 57 and the “AVG of cells/mL” value ([2]; 5xEC50, 4 h, experiment 1) was 152500 cells/mL. The Cells/mL ([2]; 5xEC50, 4 h, experiment 1) was 150000 Cells/mL and 155000 Cells/mL, the Counts ([2]; 5xEC50, 4 h, experiment 1) was 62 and 60 and the “AVG of cells/mL” value ([2]; 5xEC50, 4 h, experiment 2) was 153750 cells/mL. The Cells/mL ([2]; 5xEC50, 4 h, experiment 2) was 160000 Cells/mL and 147500 Cells/mL, the Counts ([2]; 5xEC50, 4 h, experiment 2) was 59 and 64 and the “AVG of cells/mL” value ([2]; 5xEC50, 6 h, experiment 1) was 171250 cells/mL. For the same compound, the Cells/mL ([2]; 5xEC50, 6 h, experiment 1) was 167500 Cells/mL and 175000 Cells/mL, the Counts ([2]; 5xEC50, 6 h, experiment 1) was 67 and 70 and the “AVG of cells/mL” value ([2]; 5xEC50, 6 h, experiment 2) was 140000 cells/mL. For the same compound, the Cells/mL ([2]; 5xEC50, 6 h, experiment 2) was 155000 Cells/mL and 125000 Cells/mL, the Counts ([2]; 5xEC50, 6 h, experiment 2) was 62 and 50 and the “AVG of cells/mL” value ([2]; 5xEC50, 8 h, experiment 1) was 131250 cells/mL. For the same compound, the Cells/mL ([2]; 5xEC50, 8 h, experiment 1) was 130000 Cells/mL and 132500 Cells/mL, the Counts ([2]; 5xEC50, 8 h, experiment 1) was 52 and 53 and the “AVG of cells/mL” value ([2]; 5xEC50, 8 h, experiment 2) was 146250 cells/mL. For the same compound, the Cells/mL ([2]; 5xEC50, 8 h, experiment 2) was 142500 Cells/mL and 150000 Cells/mL, the Counts ([2]; 5xEC50, 8 h, experiment 2) was 57 and 60 and the “AVG of cells/mL” value ([2]; 5xEC50, 12 h, experiment 1) was 98750 cells/mL. For the same compound, the Cells/mL ([2]; 5xEC50, 12 h, experiment 1) was 107500 Cells/mL and 90000 Cells/mL, the Counts ([2]; 5xEC50, 12 h, experiment 1) was 43 and 36 and the “AVG of cells/mL” value ([2]; 5xEC50, 12 h, experiment 2) was 95000 cells/mL. The Cells/mL ([2]; 5xEC50, 12 h, experiment 2) was 92500 Cells/mL and 97500 Cells/mL, the Counts ([2]; 5xEC50, 12 h, experiment 2) was 37 and 39 and the “AVG of cells/mL” value ([2]; 5xEC50, 24 h, experiment 1) was 28750 cells/mL. The Cells/mL ([2]; 5xEC50, 24 h, experiment 1) was 27500 Cells/mL and 30000 Cells/mL, the Counts ([2]; 5xEC50, 24 h, experiment 1) was 11 and 12 and the “AVG of cells/mL” value ([2]; 5xEC50, 24 h, experiment 2) was 7500 cells/mL. The Cells/mL ([2]; 5xEC50, 24 h, experiment 2) was 7500 Cells/mL, the Counts ([2]; 5xEC50, 24 h, experiment 2) was 3 and the “AVG of cells/mL” value ([2]; 5xEC50, 36 h, experiment 1) was 18750 cells/mL. The Cells/mL ([2]; 5xEC50, 36 h, experiment 1) was 12500 Cells/mL and 25000 Cells/mL, the Counts ([2]; 5xEC50, 36 h, experiment 1) was 5 and 10 and the “AVG of cells/mL” value ([2]; 5xEC50, 36 h, experiment 2) was 1250 cells/mL. The Cells/mL ([2]; 5xEC50, 48 h, experiment 1) was 0 Cells/mL, the Counts ([2]; 5xEC50, 48 h, experiment 1) was 0 and the “AVG of cells/mL” value ([2]; 5xEC50, 48 h, experiment 2) was 0 cells/mL. For the same compound, the Cells/mL ([2]; 5xEC50, 48 h, experiment 2) was 0 Cells/mL, the Counts ([2]; 5xEC50, 48 h, experiment 2) was 0 and the “effect of adenosine deaminase inhibition (2’-deoxycoformycin) on EC50” value [3] was “not significantly affected”. The EC50 ([3]; absence of deoxycoformycin, read-out: T. b. brucei EC50, -Dcf) was 2 ± 0.1 nM and the EC50 ([3]; presence of 2 µM deoxycoformycin, read-out: T. b. brucei EC50, +Dcf) was 1.9 ± 0.2 nM.
